Test results reported in patent US12643867B2, “Compositions and uses thereof” (University of Virginia Patent Foundation, priority 2017, dated 2026).

Target: T1, PAN3 (PAB-dependent poly(A)-specific ribonuclease subunit) (Homo sapiens, UniProt Q58A45)
T1 construct: Native kinases; endogenous in cells; host or cells: HEK293T soluble proteome
T1 sequence (Q58A45 1-887): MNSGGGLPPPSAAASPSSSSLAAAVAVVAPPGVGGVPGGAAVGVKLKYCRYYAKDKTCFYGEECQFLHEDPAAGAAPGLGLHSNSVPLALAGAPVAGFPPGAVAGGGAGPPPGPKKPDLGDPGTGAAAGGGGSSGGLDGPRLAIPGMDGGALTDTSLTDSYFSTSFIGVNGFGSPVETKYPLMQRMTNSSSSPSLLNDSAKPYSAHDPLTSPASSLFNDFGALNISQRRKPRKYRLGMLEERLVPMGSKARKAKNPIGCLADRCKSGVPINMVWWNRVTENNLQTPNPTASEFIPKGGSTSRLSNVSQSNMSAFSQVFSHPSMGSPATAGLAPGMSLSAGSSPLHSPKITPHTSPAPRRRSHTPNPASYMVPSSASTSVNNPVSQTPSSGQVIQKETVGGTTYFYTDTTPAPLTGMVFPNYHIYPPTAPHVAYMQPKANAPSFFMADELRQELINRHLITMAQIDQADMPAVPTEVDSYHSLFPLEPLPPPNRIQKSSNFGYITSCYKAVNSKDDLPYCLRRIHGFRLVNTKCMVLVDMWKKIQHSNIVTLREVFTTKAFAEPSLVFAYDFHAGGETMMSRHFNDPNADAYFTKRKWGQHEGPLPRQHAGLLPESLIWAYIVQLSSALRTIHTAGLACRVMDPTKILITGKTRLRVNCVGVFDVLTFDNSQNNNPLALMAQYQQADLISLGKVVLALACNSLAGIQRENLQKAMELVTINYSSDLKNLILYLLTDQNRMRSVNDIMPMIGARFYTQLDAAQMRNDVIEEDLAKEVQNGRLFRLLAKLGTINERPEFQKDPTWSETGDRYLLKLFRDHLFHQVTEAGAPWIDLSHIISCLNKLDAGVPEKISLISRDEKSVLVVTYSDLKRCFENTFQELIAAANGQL
Experiment: SILAC LC-MS ATP acyl phosphate probe competition, native kinases in HEK293T
Type: binding
Details: site ATP; ATP 1 mM; Ketanserin, Ritanserin 100 μM; RF001 1 mM
Procedure, shortened: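 First, HEK293T proteomes at 2 mg/ml in kinase buffer were exposed to compound (heavy) or DMSO (light) for 30 min at 25° C. Next, samples were pooled 1:1 and trypsin/Lys-C digested. Finally, desthiobiotin peptides were enriched on avidin and measured by data-dependent LC-MS/MS.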

| SMILES | SILAC ratio, PAN3 probe-modified peptide |
| --- | --- |
| O=C(c1ccc(F)cc1)C1CCN(CCn2c(=O)[nH]c3ccccc3c2=O)CC1 [Ketanserin] | 1.3 |
| Cc1nc2sccn2c(=O)c1CCN1CCC(=C(c2ccc(F)cc2)c2ccc(F)cc2)CC1 [Ritanserin] | 1.8 |
| Fc1ccc(C(=C2CCNCC2)c2ccc(F)cc2)cc1 [RF001, 4-(Bis(4-fluorophenyl)methylene) piperidine] | 1.3 |
